# Experimental data as given in patent US20140309171A1, “MARKER FOR BLOOD COAGULATION” (Universite Catholique De Louvain, priority 2011, published 2014).
# “Also recorded” adds a separate entry of the source.
# What was measured:
# blood coagulation [1] = experiment: Activated partial thromboplastin time (aPTT) in cardiac surgery patients; type: in vivo, human
# Procedure: (§1) A blood sample was drawn during CPB. […] ACT was measured at the bedside of the patients: a sample of blood was drawn, transferred into an appropriate test vial and the clotting time was measured. The second sample was taken 4 h after surgery and the coagulation was assessed in the same time (activated partial thromboplastin time, apTT; thrombin time, TT). Thrombin time (Thromboclotin™, Siemens, Marburg, Germany) and activated partial thromboplastin time (Platelin L; bioMerieux, France) were measured in a tube containing 0.129 M of trisodium citrate and determined using a coagulation device (MDA II coagulation analyzeer; bioMérieux). After surgery, a chest tube was inserted and a closed chest drainage system was attached to promote drainage of air and fluid. Bleeding was evaluated by the amount of blood collected in the chest tube of drainage over a period of 6 h after admission in intensive cares.
# blood coagulation [2] = experiment: Activated coagulation time (ACT) in cardiac surgery patients; type: in vivo, human
# Procedure: as §1
# blood coagulation [3] = experiment: Thrombin time (TT) in cardiac surgery patients; type: in vivo, human
# Procedure: as §1
# [4] = system: Ser79 acetyl-CoA carboxylase (ACC) phosphorylation in human platelets; experiment: Western blot of phosphorylated (Ser79) ACC in human platelets; type: cell-based; details: isolated washed human platelets treated with the agonist
# Procedure: (§2) Washed human platelets (used in in vitro studies). Platelets were obtained from adult healthy volunteers in accordance with the Ethics Commission of our institution (Commission d'Ethique Biomédicale Hospitalo-Facultaire, Université catholique de Louvain). Whole blood was collected with butterfly needle 21G into Sodium Citrate 1:10 solution (S-monovette). Platelet-rich plasma (PRP) was obtained by 15 min centrifugation at 330 g. The platelets pellet was then washed in Tyrode modified buffer (135 mM NaCl, 12 mM NaHCO3, 1 mM Sodium Citrate, 2.9 mM KCl, 0.3 mM Na2HPO4, 1 mM MgCl2, 5 mM D-glucose, 10 mM Hepes, 0.35% bovine serum albumin (BSA), pH 7.4 at 37° C.) and resuspended to a density of 2.5 10^5 platelets/μl for the measurement of intracellular Ca^2+ or platelet aggregation. For Western Blot analysis, PRP with eptifibatide 4 μg/ml (Integriline, GlaxoSmithKline) and ectonucleotidase apyrase (grade I) 0.5 U/ml was layered over a density barrier of iodixanol (Optiprep®) that allowed the erythrocytes and leucocytes to pellet during centrifugation at 350 g for 15 min. The platelets, because of their small size, sediment much more slowly. After centrifugation at 800 g for 10 min, the resulting pellet was resuspended to a density of 2·10^5 platelets/μl in Tyrode modified buffer before treatment and lysis of samples.
# (§3) Proteins were separated as described (Miranda et al. 2010. J Clin Invest 103(6): 879-887). The membranes were probed with the following antibodies: α1/α2 AMPK (Kinasource), phospho-ACC (S79) (1:1000; Cell Signalling), phospho-MLC (S19) (1:10000; Sigma-Aldrich), phospho-VASP (T278) (1:1000; ECM Bioscience), cofilin (Cell Signalling), phospho-cofilin (Ser 3) (Cell Signalling). Bound antibodies were detected by enhanced chemiluminescence (Thermofisher). For each gel, control of loading was realized by immunoblotting using an anti-β-actin (1:10000; Santa Cruz Biotechnology), anti-gelsolin (Santa Cruz Biotechnology) or anti-GAPDH (1:1000; Cell Signalling) antibody after the membranes were stripped. Band intensities were quantified by scanning and processing image intensities with the program ImageJ (1.33 for Mac OS X). The quantification of immunoblots presented in results was obtained after normalization using the internal loading control.
# Platelets were isolated from human blood samples as described in the experimental procedures. The isolated platelets were treated with increasing doses of thrombin (0.01, 0.03, 0.1, 0.3 and 1 U/ml), the thromboxane A2 (TXA2) receptor agonist U46619 (0.1, 0.3, 1, 3 and 10 μM), collagen (0.5, 1, 2.5, 5 and 10 μg/ml) or ADP (2.5, 5, 10, 25 nd 50 μM) for 1 min. Following treatment, the platelets were lysed and subjected to Western blotting for determining phosphorylation of Ser79 of ACC.
# [5] = system: VASP Thr 278 phosphorylation; experiment: Western blot of VASP Thr278 phosphorylation in human platelets; type: cell-based; details: human platelets, 0.1 U/ml thrombin
# Procedure: (§4) Washed human platelets (used in in vitro studies). Platelets were obtained from adult healthy volunteers in accordance with the Ethics Commission of our institution (Commission d'Ethique Biomédicale Hospitalo-Facultaire, Université catholique de Louvain). Whole blood was collected with butterfly needle 21G into Sodium Citrate 1:10 solution (S-monovette). Platelet-rich plasma (PRP) was obtained by 15 min centrifugation at 330 g. The platelets pellet was then washed in Tyrode modified buffer (135 mM NaCl, 12 mM NaHCO3, 1 mM Sodium Citrate, 2.9 mM KCl, 0.3 mM Na2HPO4, 1 mM MgCl2, 5 mM D-glucose, 10 mM Hepes, 0.35% bovine serum albumin (BSA), pH 7.4 at 37° C.) and resuspended to a density of 2.5 10^5 platelets/μl for the measurement of intracellular Ca^2+ or platelet aggregation. […]
# (§5) Proteins were separated as described (Miranda et al. 2010. J Clin Invest 103(6): 879-887). […] Bound antibodies were detected by enhanced chemiluminescence (Thermofisher). […] Band intensities were quantified by scanning and processing image intensities with the program ImageJ (1.33 for Mac OS X). The quantification of immunoblots presented in results was obtained after normalization using the internal loading control.
# [6] = system: myosin light chain (MLC) Ser 19 phosphorylation; experiment: Western blot of MLC Ser19 phosphorylation in human platelets; type: cell-based; details: human platelets, 0.1 U/ml thrombin, significant after 2 min, persisted till 10 min
# Procedure: as §4, §5
# [7] = system: MLC phosphorylation in platelets from WT mice; experiment: Western blot of MLC phosphorylation in murine platelets; type: cell-based, mouse; details: thrombin 0.05 U/ml
# Procedure: (§6) Eight- to 12-week-old mice were bled under sodium pentobarbital anesthesia (25-35 mg·kg^−1) from the retroorbital plexus. Mouse blood was collected in a 1/10 ACD solution (12 mM citric acid, 15 mM sodium citrate, 25 mM glucose) with ectonucleotidase apyrase (grade I) 0.5 U/ml. PRP was obtained by centrifugation at 800 g for 5 s followed by 5 min at 150 g. PRPs from three animals were pooled. Platelets were washed in Tyrode modified buffer and resuspended to a density of 2.5 10^5 platelets/μl for the measurement of platelet aggregation and for Western Blot analysis. At least three independent experiments were performed on PRP from different pools.
# as §3, with “For each gel, control of loading was realized by immunoblotting using an anti-β-actin (1:10000; Santa Cruz Biotechnology), anti-gelsolin (Santa Cruz Biotechnology) or anti-GAPDH (1:1000; Cell Signalling) antibody after the membranes were stripped.” left out
# [8] = system: cofilin Ser3 phosphorylation; experiment: Western blot of cofilin Ser3 phosphorylation in human platelets; type: cell-based; details: human platelets, 0.1 U/ml thrombin, maximal at 1 min, persisted for 10 min
# Procedure: as §4, §5
# [9] = system: VASP phosphorylation in platelets from WT mice; experiment: Western blot of VASP phosphorylation in murine platelets; type: cell-based, mouse; details: thrombin 0.05 U/ml
# Procedure: as §6
# as §3, with “For each gel, control of loading was realized by immunoblotting using an anti-β-actin (1:10000; Santa Cruz Biotechnology), anti-gelsolin (Santa Cruz Biotechnology) or anti-GAPDH (1:1000; Cell Signalling) antibody after the membranes were stripped.” left out
# washed human platelets = experiment: Platelet aggregation, light transmission (Chrono-Log Aggregometer); type: cell-based; details: 0.025 U/ml thrombin alone
# Procedure: as §2
# Light transmission during thrombin-induced platelet aggregation in human and murine PRP was recorded with a Chrono-Log Aggregometer at 37° C., under stirring condition (1200 crpm). The platelet suspension was incubated with dimethyl sulfoxide (DMSO, vehicle) or STO-609 (10 μM, Tocris) for 2 min before the addition of the thrombin (+/−0.03 U/ml). CaCl2 2 mM was added prior to the agonists.
# To evaluate the potential implication of CaMKKβ in platelet aggregation, washed human platelets were pre-incubated for 2 min with 10 μM STO-609, prior to treatment with thrombin or ADP.
# [10] = system: cofilin phosphorylation in platelets from WT mice; experiment: Western blot of cofilin phosphorylation in murine platelets; type: cell-based, mouse; details: thrombin 0.05 U/ml
# Procedure: as §6
# as §3, with “For each gel, control of loading was realized by immunoblotting using an anti-β-actin (1:10000; Santa Cruz Biotechnology), anti-gelsolin (Santa Cruz Biotechnology) or anti-GAPDH (1:1000; Cell Signalling) antibody after the membranes were stripped.” left out
# AMPK = AMPK enzyme assay after immunoprecipitation from platelet extracts; type: cell-based; details: human platelets treated with 0.1 U/ml thrombin
# Procedure: AMPK was immunoprecipitated with 10 μg of α1-AMPK or α2-AMPK antibodies (Kinasource) from 50 μg of platelet extracts and assayed in a final volume of 50 μl Hepes 50 mM, pH 7.2, with 0.2 mM SAMS peptide (Substrate for AMP-activated Protein Kinase, Tocris Bioscience), 0.2 mM adenosine 5′-monophosphate (AMP), and 0.1 mM [^32P]MgATP (specific radioactivity: 1000 cpm/pmol; Perkin Elmer) at 30° C. Aliquots (10 μl) were removed and spotted onto Whatman P81 papers for measurement of ^32P incorporation. One unit of protein kinase activity corresponds to the incorporation of 1 nmol of phosphate into the appropriate peptide substrate per min under the assay conditions.
# AMPK was immunoprecipitated with anti-α1- and anti-α2-AMPK antibodies prior to AMPK assay. The AMPK catalytic α1-subunit isoform accounted for the total AMPK activity in platelets (FIG. 1B), confirming the immunoblotting results.
# [11] = Post-operative bleeding (chest tube drainage) in cardiac surgery patients; type: in vivo, human; details: patient 6, after restoration of coagulation by protamine administration
# Procedure: as §1
# [12] = patient 1, during surgery, UFH 17000 units
# [13] = patient 3, during surgery, UFH 25500 units
# [14] = patient 4, during surgery, UFH 10000 units
# [15] = patient 5, during surgery, UFH 25000 units
# [16] = patient 6, during surgery, UFH 41000 units
# [17] = n = 29 patients, during surgery, after 47086±17766 UI UFH
# [18] = patient 2, during surgery, UFH 33000 units
# [19] = patient 6, after protamine injection
molecule,measurement,setting,value
unfractionated heparin [UFH],aPTT,blood coagulation [1]; [12],>180 s
same,aPTT,"blood coagulation [1]; patient 2, 4 h after surgery, UFH 33000 units",>180 s
same,aPTT,blood coagulation [1]; [13],>180 s
same,aPTT,blood coagulation [1]; [14],>180 s
same,aPTT,blood coagulation [1]; [15],>180 s
same,aPTT,blood coagulation [1]; [16],>180 s
same,"ACT, mean","blood coagulation [2]; mean of patients 1-6, during surgery, after 25250±11000 UI UFH",568 ± 65 s
same,"ACT, mean",blood coagulation [2]; [17],594 ± 100 s
same,ACT,blood coagulation [2]; [12],485 s
same,ACT,blood coagulation [2]; [18],523 s
same,ACT,blood coagulation [2]; [13],635 s
same,ACT,blood coagulation [2]; [14],498 s
same,ACT,blood coagulation [2]; [15],698 s
same,ACT,blood coagulation [2]; [16],568 s
same,"TT, mean",blood coagulation [3]; [17],>120 s
same,TT,blood coagulation [3]; [12],>120 s
same,TT,blood coagulation [3]; [18],>120 s
same,TT,blood coagulation [3]; [13],>120 s
same,TT,blood coagulation [3]; [14],>120 s
same,TT,blood coagulation [3]; [15],>120 s
same,TT,blood coagulation [3]; [16],>120 s
same,"TT, mean","blood coagulation [3]; patients 1-6, during surgery, after 25250±11000 UI UFH",>120 s
"Nc1ncnc2c1ncn2[C@@H]1O[C@H](COP(=O)(O)OP(=O)(O)O)[C@@H](O)[C@H]1O [ADP, adenosine diphosphate]",Ser79 ACC phosphorylation induced by platelet agonist,[4],not observed; also recorded: not lead to ACC phosphorylation; also recorded: failed to increase
thrombin,VASP phosphorylation on Thr 278 induced by agonist,[5],significant increased phosphorylation
same,MLC Ser 19 phosphorylation induced by agonist,[6],increase
same,phosphorylation of MLC induced by agonist,[7],increase
same,Ser79 ACC phosphorylation induced by platelet agonist,[4],increased; also recorded: specifically induced
same,cofilin phosphorylation in Ser3 induced by agonist,[8],increase
same,phosphorylation of VASP induced by agonist,[9],increase
same,"platelet aggregation, % of aggregation",washed human platelets,69±3%
same,phosphorylation of cofilin induced by agonist,[10],increase
same,AMPK activation,AMPK,led to AMPK activation; also recorded: induces AMPK activation
collagen,Ser79 ACC phosphorylation induced by platelet agonist,[4],not observed; also recorded: failed to increase
protamine,aPTT,blood coagulation [1]; [19],27 s
same,Bleeding,[11],controlled
same,TT,blood coagulation [3]; [19],30 s
CCCCC[C@H](O)/C=C/[C@@H]1[C@@H](C/C=C\CCCC(=O)O)[C@H]2CO[C@@H]1C2 [U46619],Ser79 ACC phosphorylation induced by platelet agonist,[4],not observed; also recorded: failed to increase
